Residues, ends and D or L forms follow the SMILES beside them.
Test system: B. subtilis 168
Experiment: Cardiolipin staining with NAO, fluorescence microscopy
Format: cell-based
Conditions: 500 nM NAO 60 min, then 12 μM peptide 30 min, room temperature; 520 and 640 nm
Protocol: Cells were first incubated with the dye for 60 minutes in the dark, at room temperature at 600 rpm (ensuring sufficient aeration). Afterwards, cWFW was added at a final concentration of 12 μM and co-incubated with NAO for another 30 minutes under the same conditions.
Specific staining of CL with NAO has been shown before and is neither influenced by fixation nor depolarisation of the membrane. The emission shift from green to red fluorescence (513 nm to 640 nm) was reported to be exclusive for binding to CL and is caused by narrow stacking of dye molecules. Images were captured using a Zeiss Axiovert M200 inverted fluorescence microscope and an LSM 510 ConfoCor2 (Germany) with plan-apochromat 63, 100×/1.4 objective, respectively, and processed with ImageJ.

N=C(N)NCCC[C@@H]1NC(=O)[C@H](CCCNC(=N)N)NC(=O)[C@H](Cc2c[nH]c3ccccc23)NC(=O)[C@H](Cc2ccccc2)NC(=O)[C@H](Cc2c[nH]c3ccccc23)NC(=O)[C@H](CCCNC(=N)N)NC1=O [cWFW] (cyclo(FWRRRW))
effect on NAO fluorescence (cardiolipin staining): significant decrease in NAO fluorescence intensity at both wavelengths
